Data: patent publication US20260207605A1, “KRAS G12D INHIBITORS AND USES THEREOF” (Abbisko Therapeutics Co., Ltd., priority 2022, published 2026)
Like-named read-outs stand apart in the source and are kept apart here.

Assays:
HPAC = test: Anti-proliferative 2D CTG assay, HPAC; assay type: cell-based; details: Homo sapiens, 96 h, HPAC cells, 4 days incubation, read-out: HPAC cell IC50
Procedure: (§1) 1.1 Day 0 Cell Culture and Plating
(§2) Cells in a logarithmic growth phase were harvested and the cells were counted by using a […]. Cell viability was tested by using a trypan blue exclusion method to ensure that cell viability was above 90%. The cell concentration was adjusted to the desired final density, and 90 μL of cell suspension was added to a 96-well plate, then the cells were incubated overnight at 37° C., 5% CO2 and 95% humidity.
(§3) 10 μL PBS was added to each well of the TO plate containing cells. The CTG reagent was thawed and the plate was equilibrated to room temperature for 30 minutes. The CTG solution of 50 µL/well was added to each well. The cells were lysed by shaking on an orbital shaker for 5 minutes. The plate was left at room temperature for 20 minutes to stabilize the luminescence signal. The TO fluorescence signal value was read.
(§4) From the 10 mM stock solution, with a ratio of 1:5, 9-point serial dilutions were performed. The 10× medium containing the compound was transferred into corresponding wells of the 96 wells. The final maximum compound concentration was […] and the final DMSO concentration was 0.1%. The 96-well plate was placed in a 37° C. incubator and incubated for 4 days.
(§5) 50 μL/well of detection reagent (CTG) was added to the cells, and the signal was read in an Envision machine.
(§6) The percent inhibition (%) at each compound concentration was calculated from the signal in the HPE and ZPE control wells and the fluorescence signal in the individual compound wells included in each assay plate. […] The compound concentration required for inhibitory concentration at 50% (IC50) was determined using a four-parameter logarithmic dose-response equation by testing the concentration of the compound and the inhibition percentage value. The endpoint value (IC50) of the reference compound was assessed in each experiment as a quality control measure. If the endpoint value is within three times the expected value, the experiment may be considered acceptable.

LS513 = test: Anti-proliferative 2D CTG assay, LS513; assay type: cell-based; details: Homo sapiens, LS-513, 96 h, LS513 cells, 4 days incubation, read-out: LS513 cell IC50
Procedure: as §1, §2, §3, §4, §5, §6

KRAS^G12D/cRAF = KRAS^G12D/cRAF (Homo sapiens, UniProt P01116, G12D); test: KRAS G12D/cRAF binding test (Alphalisa); details: His-tagged KRAS G12D with GMPPNP, GST-tagged cRAF
Procedure: The compound was dissolved in 100% DMSO at a starting concentration of 5 mM and diluted in DMSO with a 3-fold serial dilution method for a total of 8 concentration points. 1 μL of the compound or DMSO at each concentration point was added into 99 μL of the experimental buffer to obtain 10× stock solution.
The ratio for each compound concentration was calculated from the signal of the DMSO control group contained in each assay plate and the Alphalisa signal in each compound well. The compound concentration required for inhibitory concentration at 50% (IC50) was determined using a four-parameter logarithmic dose-response equation by testing the concentration of the compound and the value of the ratio. The endpoint value (IC50) of the reference compound was assessed in each experiment as a quality control measure. If the endpoint value is within three times the expected value, the experiment may be considered acceptable.

AsPC-1 = test: Anti-proliferative 2D CTG assay, AsPC-1; assay type: cell-based; details: Homo sapiens, ASPC1, 96 h, AsPC-1 cells, 4 days incubation, read-out: AsPC-1 cell IC50
Procedure: as §1, §2, §3, §4, §5, §6

AGS = test: Anti-proliferative 2D CTG assay, AGS; assay type: cell-based; details: AGS cells, 4 days incubation, read-out: AGS cell IC50
Procedure: as §1, §2, §3, §4, §5, §6

[1] = Pharmacokinetic experiment in mice (single PO or IV administration); details: male, ICR, mouse, plasma
Description: The purpose of this trial is to study the pharmacokinetic behavior of some compounds of the present invention, and the administration method is: single oral administration (PO) or intravenous administration (IV) to ICR mice.
ICR mice male N=9 original source: Shanghai Sippr-Bk Lab Animal Co., Ltd.
The compounds were weighed and dissolved in the corresponding solution (0.5% CMC+1% tween water solution or 10% PG+10% Solutol®+80% pH3 citrate buffer). The mixture was then shaken well and sonicated to prepare a 1 mg/mL stock solution. Nine mice were orally administered at a dose of 10 mg/kg or intravenously administered at a dose of 2 mg/kg after an overnight fast.
About 90 μL of blood was collected via the submandibular vein per time point, heparin sodium anticoagulant was added, the sample was placed on ice after collection, and plasma was centrifuged within 1 hour (centrifugation conditions: 8,000 rpm, 6 minutes, 2-8° C.). The blood collection timepoints were 0, 0.25, 0.5, 1, 2, 4, 6, 8 and 24 h. The samples were stored in a −20° C. refrigerator.
The plasma sample was 40 μL, 160 μL of ice-cold acetonitrile containing internal standard was added, vortexed for 3 minutes, and centrifuged at 11,000 rpm for 5 minutes. 100 μL of the supernatant was taken and added to 100 μL of water, 5 μL of the sample was taken and injected into LC/MS/MS for analysis.

KRAS^G12D/cRAF, sequence (P01116 1-188 isoform P01116-2 G12D): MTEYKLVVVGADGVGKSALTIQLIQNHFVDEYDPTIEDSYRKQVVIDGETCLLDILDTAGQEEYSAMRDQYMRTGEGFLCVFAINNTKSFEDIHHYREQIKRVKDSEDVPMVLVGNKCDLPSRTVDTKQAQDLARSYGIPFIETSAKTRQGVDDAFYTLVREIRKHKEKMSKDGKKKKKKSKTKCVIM

[2H]C([2H])([2H])[C@@]12CC[C@@H](CN(c3nc(OC[C@@]45CCCN4C/C(=C\F)C5)nc4c(F)c(-c5cc(O)cc6ccc(F)c(C#C)c56)c(F)cc34)C1)N2 [Example 229, 4-(6,8-difluoro-2-(((S,Z)-2-(fluoro-methylene)tetrahydro-1H-pyrrolizin-7a(5H)-yl)methoxy)-4-((1R,5S)-1-(methyl-d3)-3,8-diazabicyclo[3.2.1]octan-3-yl)quinazolin-7-yl)-5-ethynyl-6-fluoro-naphthalen-2-ol] showed an IC50 (HPAC) of 87.5 nM, an IC50 (LS513) of 33.3 nM and an IC50 (KRAS^G12D/cRAF) of 20.6 nM.
C#Cc1c(F)ccc2cc(O)cc(-c3ncc4c(N5C[C@@H]6CC[C@](CC)(C5)N6)nc(OC[C@@]56CCCN5C/C(=C\F)C6)nc4c3F)c12 [Example 55, 4-(4-((1R,5S)-1-ethyl-3,8-diazabicyclo[3.2.1]octan-3-yl)-8-fluoro-2-(((Z)-2-(fluoromethylene)tetrahydro-1H-pyrrolizin-7a (5H)-yl)methoxy)pyrido[4,3-d]pyrimidin-7-yl)-5-ethynyl-6-fl uoronaphthalen-2-ol] showed an IC50 (AsPC-1) of 16.3 nM, an IC50 (AGS) of 1.3 nM and an IC50 (KRAS^G12D/cRAF) of 3 nM.
In the case of C#Cc1c(F)ccc2cc(O)cc(-c3ncc4c(N5C[C@@H]6CC[C@](COC)(C5)N6)nc(OC[C@@]56CCCN5C/C(=C\F)C6)nc4c3F)c12 [Example 58, 5-ethynyl-6-fluoro-4-(8-fluoro-2-(((Z)-2-(fluoromethylene)tetrahydro-1H-pyrrolizin-7a(5H)-yl)methoxy)-4-((1R,5S)-1-(methoxymethyl)-3,8-diazabicyclo [3.2.1]octan-3-yl)pyrido[4,3-d]pyrimidin-7-yl)naphthalen-2-ol], the IC50 (AsPC-1) is reported as 21.8 nM, the IC50 (AGS; Homo sapiens, AGS, 96 h) is reported as 1.7 nM and the IC50 (KRAS^G12D/cRAF) is reported as 6 nM.
Compound [2H]C([2H])([2H])[C@@]12CC[C@@H](CN(c3nc(OC[C@@]45CCCN4C/C(=C\F)C5)nc4c(F)c(-c5cc(N)cc6ccc(F)c(C#C)c56)ncc34)C1)N2 [Example 355, 5-ethynyl-6-fluoro-4-(8-fluoro-2-(((S,Z)-2-(fluoromethylene)tetrahydro-1H-pyrrolizin-7a(5H)-yl)methoxy)-4-((1R,5S)-1-(methyl-d3)-3,8-diazabicyclo[3.2.1]octan-3-yl)pyrido[4,3-d]pyrimidin-7-yl)naphthalen-2-amine] has an IC50 (AsPC-1) of 66.1 nM, an AUC ([1]; iv, 2 mg/kg) of 223 ng·h/mL and a Cmax ([1]; iv, 2 mg/kg) of 68.9 ng/mL. It also gave a half-life ([1]; iv, 2 mg/kg) of 7.2 h, an AUC ([1]; po, 10 mg/kg) of 466 ng·h/mL and a Cmax ([1]; po, 10 mg/kg) of 120 ng/mL. For the same compound, the bioavailability ([1]; po, 10 mg/kg) was 41.7%, the half-life ([1]; po, 10 mg/kg) was 9.1 h and the IC50 (AGS; Homo sapiens, AGS, 96 h) was 17.7 nM. For the same compound, the IC50 (KRAS^G12D/cRAF) was 11 nM.
In the case of [2H]C([2H])([2H])C([2H])([2H])[C@@]12CC[C@@H](CN(c3nc(OC[C@@]45CCCN4C/C(=C\F)C5)nc4c(F)c(-c5cccc6sc(N)c(C#N)c56)c(Cl)cc34)C1)N2 [Example 362, 2-amino-4-(6-chloro-4-((1R,5S)-1-(ethyl-d5)-3,8-diazabicyclo [3.2.1]octan-3-yl)-8-fluoro-2-(((S,Z)-2-(fluoromethylene)tetra-hydro-1H-pyrrolizin-7a(5H)-yl)methoxy)quinazolin-7-yl)benzo [b]thiophene-3-carbonitrile], the IC50 (HPAC) is reported as 61.8 nM, the IC50 (LS513) is reported as 65.7 nM and the IC50 (KRAS^G12D/cRAF) is reported as 27.7 nM.
C#Cc1c(F)ccc2cc(O)cc(-c3ncc4c(N5C[C@@H]6CC[C@](C7CC7)(C5)N6)nc(OC[C@@]56CCCN5CC(=C(F)F)C6)nc4c3F)c12 [Example 45, 4-(4-((1S,5S)-1-cyclopropyl-3,8-diazabicyclo[3.2.1]octan-3-yl)-2-(((S)-2-(difluoromethylene)tetrahydro-1H-pyrrolizin-7a (5H)-yl)methoxy)-8-fluoropyrido [4,3-d]pyrimidin-7-yl)-5-ethynyl-6-fluoronaphthalen-2-ol] gave an IC50 (HPAC) of 133 nM, an IC50 (LS513) of 163 nM and an IC50 (KRAS^G12D/cRAF) of 52.5 nM.
Work on C#Cc1c(F)ccc2cc(O)cc(-c3ncc4c(N5C[C@@H]6CC[C@](CC)(C5)N6)nc(OC[C@@]56CCCN5CC(=C)C6)nc4c3F)c12 [Example 20, 4-(4-((1R,5S)-1-ethyl-3,8-diazabicyclo[3.2.1]octan-3-yl)-8-fluoro-2-(((S)-2-methylenetetrahydro-1H-pyrrolizin-7a(5H)-yl)methoxy)pyrido[4,3-d]pyrimidin-7-yl)-5-ethynyl-6-fluoronaphthalen-2-ol] yielded an IC50 (AsPC-1) of 17.2 nM, an IC50 (AGS; Homo sapiens, AGS, 96 h) of 3.1 nM and an IC50 (KRAS^G12D/cRAF) of 3 nM.
For C#Cc1c(F)ccc2cc(O)cc(-c3ncc4c(N5C[C@@H]6CC[C@](C7CC7)(C5)N6)nc(OC[C@@]56CCCN5C/C(=C/F)C6)nc4c3F)c12 [Example 90, 4-(4-((1S,5S)-1-cyclopropyl-3,8-diazabicyclo[3.2.1]octan-3-yl)-8-fluoro-2-(((S,E)-2-(fluoromethylene)tetrahydro-1H-pyrrolizin-7a(5H)-yl)methoxy)pyrido[4,3-d]pyrimidin-7-yl)-5-ethynyl-6-fluoronaphthalen-2-ol], the IC50 (AsPC-1) was 103 nM, the IC50 (AGS; Homo sapiens, AGS, 96 h) was 28.1 nM and the IC50 (KRAS^G12D/cRAF) was 40.7 nM.
For C#Cc1c(F)ccc2cc(O)cc(-c3ncc4c(N5C[C@@H]6CC[C@](C7CC7)(C5)N6)nc(OC[C@@]56CCCN5CC(=C)C6)nc4c3F)c12 [Example 29, 4-(4-((1S,5S)-1-cyclopropyl-3,8-diazabicyclo[3.2.1]octan-3-yl)-8-fluoro-2-(((S)-2-methylenetetrahydro-1H-pyrrolizin-7a(5H)-yl)methoxy)pyrido[4,3-d]pyrimidin-7-yl)-5-ethynyl-6-fluoronaphthalen-2-ol], the IC50 (AsPC-1) was 102 nM, the IC50 (AGS; Homo sapiens, AGS, 96 h) was 21 nM and the IC50 (KRAS^G12D/cRAF) was 25 nM.
Work on [2H]C([2H])([2H])C12CCC(CN(c3nc(OCC45CC(=C)CN4CC(=C)C5)nc4c(F)c(-c5cc(O)cc6ccc(F)c(C#C)c56)ncc34)C1)N2 (stereo not shown) [Example 6, 4-(2-((2,6-dimethylenetetrahydro-1H-pyrrolizin-7a(5H)-yl)methoxy)-8-fluoro-4-(1-(methyl-d3)-3,8-diazabicyclo[3.2.1]octan-3-yl)pyrido[4,3-d]pyrimidin-7-yl)-5-ethynyl-6-fluoronaphtha len-2-ol] yielded an IC50 (AsPC-1) of 48.9 nM, an IC50 (AGS; Homo sapiens, AGS, 96 h) of 14.3 nM and an IC50 (KRAS^G12D/cRAF) of 3.2 nM.
In the case of [2H]C([2H])([2H])OC[C@@]12CC[C@@H](CN(c3nc(OC[C@@]45CCCN4C/C(=C\F)C5)nc4c(F)c(-c5cc(O)cc6ccc(F)c(C#C)c56)ncc34)C1)N2 [Example 61, 5-ethynyl-6-fluoro-4-(8-fluoro-2-(((Z)-2-(fluoromethylene)tetrahydro-1H-pyrrolizin-7a(5H)-yl)methoxy)-4-((1R,5S)-1-((methoxy-d3)methyl)-3,8-diazabicyclo[3.2.1]octan-3-yl)pyrido[4,3-d]pyrimidin-7-yl)naphthalen-2-ol], the IC50 (AsPC-1) is reported as 37.9 nM, the IC50 (AGS) is reported as 3.4 nM and the IC50 (KRAS^G12D/cRAF) is reported as 2.5 nM.
C#Cc1c(F)ccc2cc(O)cc(-c3ncc4c(N5C[C@@H]6CC[C@](CC)(C5)N6)nc(OCC56CC(=C)CN5CC(=C)C6)nc4c3F)c12 [Example 5, 4-(2-((2,6-dimethylenetetrahydro-1H-pyrrolizin-7a(5H)-yl)methoxy)-4-((1R,5S)-1-ethyl-3,8-diazabicyclo[3.2.1]octan-3-yl)-8-fluoropyrido[4,3-d]pyrimidin-7-yl)-5-ethynyl-6-fluoronaphthalen-2-ol] showed an IC50 (AsPC-1) of 45.8 nM, an IC50 (AGS; Homo sapiens, AGS, 96 h) of 14.1 nM and an IC50 (KRAS^G12D/cRAF) of 16.5 nM.
Compound C#Cc1c(F)ccc2cc(O)cc(-c3ncc4c(N5C[C@@H]6CC[C@](COC)(C5)N6)nc(OC[C@@]56CCCN5CC(=C)C6)nc4c3F)c12 [Example 22, 5-ethynyl-6-fluoro-4-(8-fluoro-4-((1R,5S)-1-(methoxymethyl)-3,8-diazabicyclo[3.2.1]octan-3-yl)-2-(((S)-2-methylenetetrahydro-1H-pyrrolizin-7a(5H)-yl)methoxy)pyrido[4,3-d]pyrimidin-7-yl)naphthalen-2-ol] has an IC50 (AsPC-1) of 14.3 nM, an IC50 (AGS; Homo sapiens, AGS, 96 h) of 21.7 nM and an IC50 (KRAS^G12D/cRAF) of 2.9 nM.
